This note sets out measurements from US12098144B2, “Piperazine indazole glucocorticoid receptor antagonists” (Corcept Therapeutics Incorporated, priority 2021, dated 2024).

One may read the Ki as a dissociation constant, usually derived from enzyme kinetics or from competition with a known ligand.

The test concerns the target T1, glucocorticoid receptor (Homo sapiens, UniProt P04150).
T1 construct: endogenous in cells; ATCC cat
T1 sequence (P04150 1-777): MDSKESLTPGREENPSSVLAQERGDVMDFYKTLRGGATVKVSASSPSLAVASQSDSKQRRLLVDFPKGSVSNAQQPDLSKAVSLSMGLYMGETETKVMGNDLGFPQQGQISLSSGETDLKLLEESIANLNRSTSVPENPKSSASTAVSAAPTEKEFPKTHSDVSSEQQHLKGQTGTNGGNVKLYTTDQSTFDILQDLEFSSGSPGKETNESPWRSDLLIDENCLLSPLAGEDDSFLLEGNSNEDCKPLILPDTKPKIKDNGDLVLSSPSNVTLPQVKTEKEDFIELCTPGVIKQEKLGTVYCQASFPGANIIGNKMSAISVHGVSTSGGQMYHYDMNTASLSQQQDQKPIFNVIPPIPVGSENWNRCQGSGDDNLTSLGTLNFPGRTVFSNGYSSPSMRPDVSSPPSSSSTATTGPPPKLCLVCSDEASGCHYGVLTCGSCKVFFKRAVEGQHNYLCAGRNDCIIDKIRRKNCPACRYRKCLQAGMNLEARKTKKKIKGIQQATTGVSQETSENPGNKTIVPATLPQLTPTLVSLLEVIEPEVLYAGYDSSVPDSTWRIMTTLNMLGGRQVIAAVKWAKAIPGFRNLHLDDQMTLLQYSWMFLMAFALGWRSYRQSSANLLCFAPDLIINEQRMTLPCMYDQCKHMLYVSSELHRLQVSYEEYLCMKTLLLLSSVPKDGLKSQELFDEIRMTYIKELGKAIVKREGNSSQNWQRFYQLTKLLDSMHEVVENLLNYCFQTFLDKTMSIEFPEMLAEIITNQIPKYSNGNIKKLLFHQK
In words: Hep G2 TAT Ki: inhibition of dexamethasone-induced TAT in HepG2 cells (96 well). Format: cell-based. The settings on record: challenge of 100 nM dexamethasone, IC50 converted to Ki by Cheng and Prusoff equation. Put shortly: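 Cells lysed 15 min at 4 °C; TAT enzyme reaction 2 h at 37 °C, stopped with KOH, 30 min further at 37 °C. Inhibition fitted to 4-parameter logistic.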
`Cc1cc2c(cnn2-c2ccc(F)cc2)cc1C1CN(S(=O)(=O)c2ncn(C)n2)CCN1CC(C)C` (single isomer, unassigned) [Example 92, 1-(4-fluorophenyl)-5-(1-isobutyl-4-((1-methyl-1H-1,2,4-triazol-3-yl)sulfonyl)piperazin-2-yl)-6-methyl-1H-indazole] had an inhibition constant Ki of 86 nM.
Take `Cc1cc2c(cnn2-c2ccc(F)cc2)cc1C1CN(S(=O)(=O)c2nn(C)nc2C)CCN1CC(C)C` (single isomer, unassigned) [Example 93, 5-(4-((2,5-dimethyl-2H-1,2,3-triazol-4-yl)sulfonyl)-1-isobutylpiperazin-2-yl)-1-(4-fluorophenyl)-6-methyl-1H-indazole]: the affinity, expressed as Ki, was 36 nM.
In turn, `Cc1cc2c(cnn2-c2ccc(F)cc2)cc1C1CN(S(=O)(=O)c2nncn2C)CCN1CC(C)C` (single isomer, unassigned) [Example 94, 1-(4-fluorophenyl)-5-(1-isobutyl-4-((4-methyl-4H-1,2,4-triazol-3-yl)sulfonyl)piperazin-2-yl)-6-methyl-1H-indazole] returned a Ki of 74 nM.
Then `Cc1cc2c(cnn2-c2ccc(F)cc2)cc1C1CN(S(=O)(=O)c2cnn(CC(F)(F)F)n2)CCN1CC(C)C` (single isomer, unassigned) [Example 95, 1-(4-fluorophenyl)-5-(1-isobutyl-4-((2-(2,2,2-trifluoroethyl)-2H-1,2,3-triazol-4-yl)sulfonyl)piperazin-2-yl)-6-methyl-1H-indazole], with 100 nM; and `Cc1cc2c(cnn2-c2ccc(F)cc2)cc1C1CN(S(=O)(=O)c2cn(CC(F)F)nc2C)CCN1CC(C)C` (single isomer, unassigned) [Example 96, 5-(4-((1-(2,2-difluoroethyl)-3-methyl-1H-pyrazol-4-yl)sulfonyl)-1-isobutylpiperazin-2-yl)-1-(4-fluorophenyl)-6-methyl-1H-indazole], with 43 nM.
The molecule `Cc1cc2c(cnn2-c2ccc(F)cc2)cc1C1CN(S(=O)(=O)c2cccnc2)CCN1CC(C)C` (single isomer, unassigned) [Example 97, 1-(4-fluorophenyl)-5-(1-isobutyl-4-(pyridin-3-ylsulfonyl)piperazin-2-yl)-6-methyl-1H-indazole] showed a Ki of 23 nM.
The same measure for `Cc1cc2c(cnn2-c2ccc(F)cc2)cc1C1CN(S(=O)(=O)c2ccc(C#N)cc2)CCN1CC(C)C` (single isomer, unassigned) [Example 98, 4-((3-(1-(4-fluorophenyl)-6-methyl-1H-indazol-5-yl)-4-isobutylpiperazin-1-yl)sulfonyl)benzonitrile]: 25 nM; for `Cc1nc(S(=O)(=O)N2CCN(CC(C)C)C(c3cc4cnn(-c5ccc(F)cc5)c4cc3C)C2)cs1` (single isomer, unassigned) [Example 99, 4-((3-(1-(4-fluorophenyl)-6-methyl-1H-indazol-5-yl)-4-isobutylpiperazin-1-yl)sulfonyl)-2-methylthiazole]: 19 nM; for `Cc1cc2c(cnn2-c2ccc(F)cc2)cc1C1CN(S(=O)(=O)c2c(C)nnn2C)CCN1CC(C)C` (single isomer, unassigned) [Example 100, 5-(4-((1,4-dimethyl-1H-1,2,3-triazol-5-yl)sulfonyl)-1-isobutylpiperazin-2-yl)-1-(4-fluorophenyl)-6-methyl-1H-indazole]: 42 nM.
`Cc1cc2c(cnn2-c2ccc(F)cc2)cc1C1CN(S(=O)(=O)c2cn(C)nn2)CCN1CC(C)C` (single isomer, unassigned) [Example 101, 1-(4-fluorophenyl)-5-(1-isobutyl-4-((1-methyl-1H-1,2,3-triazol-4-yl)sulfonyl)piperazin-2-yl)-6-methyl-1H-indazole] returned a Ki of 28 nM.
Take `Cc1cc2c(cnn2-c2ccc(F)cc2)cc1C1CN(S(=O)(=O)c2ccc(C(F)(F)F)nc2)CCN1CC(C)C` (single isomer, unassigned) [Example 102, 1-(4-fluorophenyl)-5-(1-isobutyl-4-((6-(trifluoromethyl)pyridin-3-yl)sulfonyl)piperazin-2-yl)-6-methyl-1H-indazole]: the Ki came out at 39 nM.
